Measurements from ChEMBL document CHEMBL5506042, “Discovery of the Clinical Candidate IDOR-1117-2520: A Potent and Selective Antagonist of CCR6 for Autoimmune Diseases” (J Med Chem, 2024).
Active and inactive are the calls of the source. The calls are words filed in the database; no cut-off is given here.

Experiments:
[1] = Fraction unbound in mouse plasma at 1 uM by rapid equilibrium dialysis based LC-MS/MS analysis; assay type: ADME, cell-free
[2] = Cytotoxicity against human HepG2 cells assessed as reduction in cell viability incubated for 72 hrs by CellTiter-Glo assay
HepaRG = assay: Cytotoxicity against human HepaRG cells assessed as leakage of intracellular LDH at 30 uM incubated for 24 hrs by spectrophotometry
[3] = Lipophilicity, LogD of the compound in 1-Octanol/PBS at pH 7.4 by miniaturized shake flask method
[4] = Intrinsic clearance in human liver microsomes at 1 uM measured for 15 mins in presence of NADPH regenerating system measured per mg protein by LC-MS/MS analysis; assay type: ADME, Microsome; conditions: read-out: CLH
[5] = Chemical stability of the compound at 0.1 mg/ml at pH 2 irradiated with xenon lamp at 250W/m2 incubated for 24 hrs by stress test; assay type: physicochemical; conditions: buffer, read-out: Stability
[6] = Chemical stability of the compound at 0.1 mg/ml at pH 4 irradiated with xenon lamp at 250W/m2 incubated for 24 hrs by stress test; assay type: physicochemical; conditions: buffer, read-out: Stability
[7] = Chemical stability of the compound at 0.1 mg/ml at pH 7 irradiated with xenon lamp at 250W/m2 incubated for 24 hrs by stress test; assay type: physicochemical; conditions: buffer, read-out: Stability
[8] = Chemical stability of the compound at 0.1 mg/ml at pH 9 irradiated with xenon lamp at 250W/m2 incubated for 24 hrs by stress test; assay type: physicochemical; conditions: buffer, read-out: Stability
[9] = Chemical stability of the compound at 0.1 mg/ml at pH 10 irradiated with xenon lamp at 250W/m2 incubated for 24 hrs by stress test; assay type: physicochemical; conditions: buffer, read-out: Stability
[10] = Intrinsic clearance in rat liver microsomes at 0.1 uM measured for 15 mins in presence of NADPH regenerating system by LC-MS/MS analysis; assay type: ADME, Microsome; conditions: read-out: CLH
[11] = Intrinsic clearance in rat liver microsomes at 1 uM measured for 15 mins in presence of NADPH regenerating system by LC-MS/MS analysis; assay type: ADME, Microsome; conditions: read-out: CLH
[12] = Intrinsic clearance in rat liver microsomes at 3 uM measured for 15 mins in presence of NADPH regenerating system by LC-MS/MS analysis; assay type: ADME, Microsome; conditions: read-out: CLH
[13] = Intrinsic clearance in mouse liver microsomes at 1 uM measured for 15 mins in presence of NADPH regenerating system by LC-MS/MS analysis; assay type: ADME, Microsome; conditions: read-out: CLH
[14] = Fraction unbound in rat plasma at 1 uM by rapid equilibrium dialysis based LC-MS/MS analysis; assay type: ADME, cell-free
[15] = Clearance in Wistar rat at 1 mg/kg, iv; assay type: ADME, organism-based; conditions: in vivo
[16] = Volume of distribution at steady state in Wistar rat at 1 mg/kg, iv; assay type: ADME, organism-based; conditions: in vivo, read-out: Vdss
[17] = Half life in Wistar rat at 1 mg/kg, iv; assay type: ADME, organism-based; conditions: in vivo
[18] = AUC in C57BL/6 mouse at 15 mg/kg, po; assay type: ADME, organism-based; conditions: in vivo
[19] = AUC in C57BL/6 mouse at 50 mg/kg, po; assay type: ADME, organism-based; conditions: in vivo
[20] = Cmax in C57BL/6 mouse at 15 mg/kg, po; assay type: ADME, organism-based; conditions: in vivo
[21] = Cmax in C57BL/6 mouse at 50 mg/kg, po; assay type: ADME, organism-based; conditions: in vivo
[22] = Tmax in C57BL/6 mouse at 15 mg/kg, po; assay type: ADME, organism-based; conditions: in vivo
[23] = Tmax in C57BL/6 mouse at 50 mg/kg, po; assay type: ADME, organism-based; conditions: in vivo
[24] = AUC in Wistar rat at 10 mg/kg, po; assay type: ADME, organism-based; conditions: in vivo
[25] = AUC in Wistar rat at 50 mg/kg, po; assay type: ADME, organism-based; conditions: in vivo
[26] = Cmax in Wistar rat at 10 mg/kg, po; assay type: ADME, organism-based; conditions: in vivo
[27] = Cmax in Wistar rat at 50 mg/kg, po; assay type: ADME, organism-based; conditions: in vivo
[28] = Tmax in Wistar rat at 10 mg/kg, po; assay type: ADME, organism-based; conditions: in vivo
[29] = Tmax in Wistar rat at 50 mg/kg, po; assay type: ADME, organism-based; conditions: in vivo
[30] = Oral bioavailability in Wistar rat at 10 mg/kg; assay type: ADME, organism-based; conditions: in vivo
[31] = Oral bioavailability in Wistar rat at 50 mg/kg; assay type: ADME, organism-based; conditions: in vivo
[32] = fCmax in po dosed C57BL/6 mouse; assay type: ADME, organism-based; conditions: in vivo
[33] = target: T1, C-C chemokine receptor type 6 (Mus musculus, UniProt O54689); assay: Antagonist activity at CCR6 in C57BL/6J mouse whole blood assessed as inhibition of CCL20-stimulated receptor internalization in lymphocytes incubated for 40 mins followed by CCL20 addition and measured after 40 mins by flow cytometry
T1 sequence (O54689 whole entry): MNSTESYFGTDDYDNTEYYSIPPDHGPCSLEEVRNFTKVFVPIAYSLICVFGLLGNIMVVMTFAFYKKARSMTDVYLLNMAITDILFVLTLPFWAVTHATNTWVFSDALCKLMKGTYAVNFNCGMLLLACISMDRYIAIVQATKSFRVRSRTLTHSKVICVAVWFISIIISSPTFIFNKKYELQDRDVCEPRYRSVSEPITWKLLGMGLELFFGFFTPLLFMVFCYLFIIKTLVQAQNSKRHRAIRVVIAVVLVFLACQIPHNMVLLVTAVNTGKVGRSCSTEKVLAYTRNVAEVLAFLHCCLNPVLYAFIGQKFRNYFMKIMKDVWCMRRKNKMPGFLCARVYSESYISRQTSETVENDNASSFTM

Mus musculus [34] = assay: Inhibition of chemotaxis of CCR6-positive B cells in bronchoalveolar lavage fluid in ovalbumin-induced inflammation BALB/c mouse model at 15 mg/kg/day, po treated with OVA and compound from day 1 to day 18 and measured at 24 hrs post last dose of OVA challenge by flow cytometry; assay type: functional, organism-based; conditions: time 18.0 day
Mus musculus [35] = assay: Inhibition of chemotaxis of CCR6-positive B cells in bronchoalveolar lavage fluid in ovalbumin-induced inflammation BALB/c mouse model at 15 mg/kg/day, po treated with OVA from day 1 to day 18 and with compound from day 8 to 18 and measured at 24 hrs post last dose of OVA challenge by flow cytometry; assay type: functional, organism-based; conditions: time 11.0 day

SMILES: CN1CC(C)(C(O)(c2ccc(OC(F)(F)F)cc2)c2cncc(N3CCCC3)c2)C1 (racemic)
- fraction unbound at 1 µM [1]: 0.05
- IC50 at 72 h [2]: 11 µM
- Activity (HepaRG): Non-Toxic
- logD [3]: 2.2
- microsomal CLint at […], 1 µM [4]: 146 µL/min/mg
- remaining at 24 h, 0.1 mg/ml [5]: 97%
- remaining at 24 h, 0.1 mg/ml [6]: 4%
- remaining at 24 h, 0.1 mg/ml [7]: 3%
- remaining at 24 h, 0.1 mg/ml [8]: 2%
- remaining at 24 h, 0.1 mg/ml [9]: 2%
- microsomal CLint at […], 0.1 µM [10]: > 1250 µL/min/mg
- microsomal CLint at […], 1 µM [11]: 750 µL/min/mg
- microsomal CLint at […], 3 µM [12]: 450 µL/min/mg
- microsomal CLint at […], 1 µM [13]: 666 µL/min/mg
- fraction unbound at 1 µM [14]: 0.06
- clearance [15]: 62 mL/min/kg
- Vd [16]: 11 L/kg
- half-life [17]: 144 min
- AUC [18]: 145 ng·h/mL
- AUC [19]: 5030 ng·h/mL
- Cmax [20]: 30 ng/mL
- Cmax [21]: 1100 ng/mL
- Tmax [22]: 30 min
- Tmax [23]: 120 min
- AUC [24]: 165 ng·h/mL
- AUC [25]: 1500 ng·h/mL
- Cmax [26]: 110 ng/mL
- Cmax [27]: 308 ng/mL
- Tmax [28]: 30 min
- Tmax [29]: 30 min
- bioavailability [30]: 6%
- bioavailability [31]: 11%
- fCmax [32]: 55 ng/mL
- IC50 [33]: 0.0013 µM
- inhibition (Mus musculus [34]): Active
- inhibition (Mus musculus [35]): Active
